Test results from ChEMBL document CHEMBL5649169 (ChemMedChem, 2018).

Assays:
Ephrin type-A receptor 5 = Ephrin type-A receptor 5 (Homo sapiens, UniProt P54756)
[1] = target: Proteasomal ubiquitin receptor ADRM1 (Homo sapiens) (UniProt Q16186)
[2] = target: Argininosuccinate synthase (Homo sapiens) (UniProt P00966)
[3] = target: ATP synthase peripheral stalk subunit b, mitochondrial (Homo sapiens) (UniProt P24539)
[4] = target: Protein cholesin (Homo sapiens) (UniProt Q9BRJ6)
Cyclin-A2 (Homo sapiens) = Cyclin-A2 (Homo sapiens) (UniProt P20248)
Chain of Cyclin-A2 (Homo sapiens) (P20248 whole entry): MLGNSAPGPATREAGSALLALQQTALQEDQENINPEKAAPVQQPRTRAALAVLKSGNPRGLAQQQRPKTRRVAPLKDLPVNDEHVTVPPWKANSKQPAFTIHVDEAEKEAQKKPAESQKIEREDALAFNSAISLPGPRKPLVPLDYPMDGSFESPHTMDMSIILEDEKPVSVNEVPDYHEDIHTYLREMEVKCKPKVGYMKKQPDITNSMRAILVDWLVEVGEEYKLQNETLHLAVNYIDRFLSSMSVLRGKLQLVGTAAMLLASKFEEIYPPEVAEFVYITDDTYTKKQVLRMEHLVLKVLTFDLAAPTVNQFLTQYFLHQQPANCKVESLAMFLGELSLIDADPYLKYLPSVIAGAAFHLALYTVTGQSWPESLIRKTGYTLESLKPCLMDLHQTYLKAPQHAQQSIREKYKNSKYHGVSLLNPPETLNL

Cyclin-H (Homo sapiens) = Cyclin-H (Homo sapiens) (UniProt P51946)
[5] = target: Cyclin-dependent kinase 13 (Homo sapiens) (UniProt Q14004)
[6] = target: Clathrin heavy chain 1 (Homo sapiens) (UniProt Q00610)
Homo sapiens [7] = species on record: Homo sapiens
[8] = target: Mammalian ependymin-related protein 1 (Homo sapiens) (UniProt Q9UM22)
[9] = target: Galactocerebrosidase (Homo sapiens) (UniProt P54803)
Chain of Galactocerebrosidase (Homo sapiens) (P54803 whole entry): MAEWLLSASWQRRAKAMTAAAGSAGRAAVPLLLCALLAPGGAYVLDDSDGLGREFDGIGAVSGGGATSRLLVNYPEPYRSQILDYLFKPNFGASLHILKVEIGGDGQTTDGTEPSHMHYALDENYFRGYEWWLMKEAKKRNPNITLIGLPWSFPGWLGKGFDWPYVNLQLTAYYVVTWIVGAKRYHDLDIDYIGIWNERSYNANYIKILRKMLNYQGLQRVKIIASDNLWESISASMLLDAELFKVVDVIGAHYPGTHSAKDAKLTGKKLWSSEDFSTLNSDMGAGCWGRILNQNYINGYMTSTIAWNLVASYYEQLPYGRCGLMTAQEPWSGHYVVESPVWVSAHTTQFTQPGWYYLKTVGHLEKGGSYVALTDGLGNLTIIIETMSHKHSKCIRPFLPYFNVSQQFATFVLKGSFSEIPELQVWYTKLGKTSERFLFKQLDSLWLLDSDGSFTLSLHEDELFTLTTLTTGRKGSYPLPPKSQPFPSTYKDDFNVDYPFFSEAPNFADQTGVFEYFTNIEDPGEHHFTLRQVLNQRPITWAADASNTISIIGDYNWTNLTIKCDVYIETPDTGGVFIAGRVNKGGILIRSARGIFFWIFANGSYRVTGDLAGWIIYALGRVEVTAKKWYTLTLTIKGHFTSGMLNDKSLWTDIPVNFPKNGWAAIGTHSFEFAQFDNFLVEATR

[10] = target: Heat shock protein HSP 90-alpha (Homo sapiens) (UniProt P07900)
[11] = target: Isocitrate dehydrogenase [NAD] subunit alpha, mitochondrial (Homo sapiens) (UniProt P50213)
Chain of Isocitrate dehydrogenase [NAD] subunit alpha, mitochondrial (Homo sapiens) (P50213 whole entry): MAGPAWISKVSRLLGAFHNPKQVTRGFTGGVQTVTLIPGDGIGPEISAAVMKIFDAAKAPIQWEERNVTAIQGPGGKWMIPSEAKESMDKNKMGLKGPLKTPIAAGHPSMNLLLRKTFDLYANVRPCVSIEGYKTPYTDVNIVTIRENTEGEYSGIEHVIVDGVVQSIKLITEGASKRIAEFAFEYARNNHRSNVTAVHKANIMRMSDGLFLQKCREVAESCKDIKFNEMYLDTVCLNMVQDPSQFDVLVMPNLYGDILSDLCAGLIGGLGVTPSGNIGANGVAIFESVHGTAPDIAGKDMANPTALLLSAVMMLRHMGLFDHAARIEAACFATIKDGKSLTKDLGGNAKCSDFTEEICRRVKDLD

[12] = target: Inner centromere protein (Homo sapiens) (UniProt Q9NQS7)
Kinectin (Homo sapiens) = Kinectin (Homo sapiens) (UniProt Q86UP2)
[13] = target: Leucine--tRNA ligase, cytoplasmic (Homo sapiens) (UniProt Q9P2J5)
[14] = target: Myosin light polypeptide 6 (Homo sapiens) (UniProt P60660)
Chain of Myosin light polypeptide 6 (Homo sapiens) (P60660 whole entry): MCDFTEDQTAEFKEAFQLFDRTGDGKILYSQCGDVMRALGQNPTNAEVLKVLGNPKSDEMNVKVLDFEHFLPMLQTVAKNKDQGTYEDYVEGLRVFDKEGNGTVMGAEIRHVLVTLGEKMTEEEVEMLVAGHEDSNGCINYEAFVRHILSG

[15] = target: Asparagine--tRNA ligase, cytoplasmic (Homo sapiens) (UniProt O43776)
[16] = target: Nck-associated protein 1-like (Homo sapiens) (UniProt P55160)
[17] = target: NADH dehydrogenase [ubiquinone] 1 alpha subcomplex subunit 5 (Homo sapiens) (UniProt Q16718)
[18] = target: Serine/threonine-protein kinase Nek7 (Homo sapiens) (UniProt Q8TDX7)
[19] = target: Polyadenylate-binding protein-interacting protein 1 (Homo sapiens) (UniProt Q9H074)
[20] = target: Poly [ADP-ribose] polymerase 1 (Homo sapiens) (UniProt P09874)
[21] = target: Membrane-associated progesterone receptor component 1 (Homo sapiens) (UniProt O00264)
[22] = target: 5'-AMP-activated protein kinase subunit beta-1 (Homo sapiens) (UniProt Q9Y478)
[23] = target: 26S proteasome non-ATPase regulatory subunit 3 (Homo sapiens) (UniProt O43242)
Chain of 26S proteasome non-ATPase regulatory subunit 3 (Homo sapiens) (O43242 whole entry): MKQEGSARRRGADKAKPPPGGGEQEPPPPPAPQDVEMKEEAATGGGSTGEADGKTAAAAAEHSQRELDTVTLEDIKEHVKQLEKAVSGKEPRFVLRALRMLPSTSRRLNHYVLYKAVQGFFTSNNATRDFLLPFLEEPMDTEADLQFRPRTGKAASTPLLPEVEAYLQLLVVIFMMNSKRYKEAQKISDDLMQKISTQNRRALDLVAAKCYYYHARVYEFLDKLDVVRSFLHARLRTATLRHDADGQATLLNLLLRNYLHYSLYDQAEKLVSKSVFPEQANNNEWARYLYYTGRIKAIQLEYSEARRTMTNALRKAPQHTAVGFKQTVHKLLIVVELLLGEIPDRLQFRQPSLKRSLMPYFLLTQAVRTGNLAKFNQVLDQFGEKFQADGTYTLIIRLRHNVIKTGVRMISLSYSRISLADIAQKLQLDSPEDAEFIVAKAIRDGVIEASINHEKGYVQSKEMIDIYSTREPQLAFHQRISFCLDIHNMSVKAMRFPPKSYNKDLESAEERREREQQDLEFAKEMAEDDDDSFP

Homo sapiens [24] = species on record: Homo sapiens; remark: listed apart in the source
[25] = target: Ras-related protein Rab-8A (Homo sapiens) (UniProt P61006)
[26] = target: Protein RER1 (Homo sapiens) (UniProt O15258)
[27] = target: Large ribosomal subunit protein uL14 (Homo sapiens) (UniProt P62829)
[28] = target: Large ribosomal subunit protein eL27 (Homo sapiens) (UniProt P61353)
[29] = target: Ribosomal protein S6 kinase alpha-3 (Homo sapiens) (UniProt P51812)
[30] = target: Secretory carrier-associated membrane protein 3 (Homo sapiens) (UniProt O14828)
Chain of Secretory carrier-associated membrane protein 3 (Homo sapiens) (O14828 whole entry): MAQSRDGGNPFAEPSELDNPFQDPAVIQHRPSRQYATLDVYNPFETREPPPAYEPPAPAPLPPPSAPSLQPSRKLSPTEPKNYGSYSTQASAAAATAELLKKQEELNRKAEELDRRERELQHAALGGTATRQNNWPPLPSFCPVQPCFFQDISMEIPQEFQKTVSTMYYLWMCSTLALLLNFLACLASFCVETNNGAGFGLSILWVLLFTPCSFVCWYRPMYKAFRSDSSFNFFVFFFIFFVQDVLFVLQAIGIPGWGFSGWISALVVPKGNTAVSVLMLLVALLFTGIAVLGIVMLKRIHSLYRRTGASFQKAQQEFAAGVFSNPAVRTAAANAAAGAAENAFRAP

[31] = target: Signal peptidase complex catalytic subunit SEC11A (Homo sapiens) (UniProt P67812)
[32] = target: Tricarboxylate transport protein, mitochondrial (Homo sapiens) (UniProt P53007)
[33] = target: STE20-like serine/threonine-protein kinase (Homo sapiens) (UniProt Q9H2G2)
Chain of STE20-like serine/threonine-protein kinase (Homo sapiens) (Q9H2G2 whole entry, looked up): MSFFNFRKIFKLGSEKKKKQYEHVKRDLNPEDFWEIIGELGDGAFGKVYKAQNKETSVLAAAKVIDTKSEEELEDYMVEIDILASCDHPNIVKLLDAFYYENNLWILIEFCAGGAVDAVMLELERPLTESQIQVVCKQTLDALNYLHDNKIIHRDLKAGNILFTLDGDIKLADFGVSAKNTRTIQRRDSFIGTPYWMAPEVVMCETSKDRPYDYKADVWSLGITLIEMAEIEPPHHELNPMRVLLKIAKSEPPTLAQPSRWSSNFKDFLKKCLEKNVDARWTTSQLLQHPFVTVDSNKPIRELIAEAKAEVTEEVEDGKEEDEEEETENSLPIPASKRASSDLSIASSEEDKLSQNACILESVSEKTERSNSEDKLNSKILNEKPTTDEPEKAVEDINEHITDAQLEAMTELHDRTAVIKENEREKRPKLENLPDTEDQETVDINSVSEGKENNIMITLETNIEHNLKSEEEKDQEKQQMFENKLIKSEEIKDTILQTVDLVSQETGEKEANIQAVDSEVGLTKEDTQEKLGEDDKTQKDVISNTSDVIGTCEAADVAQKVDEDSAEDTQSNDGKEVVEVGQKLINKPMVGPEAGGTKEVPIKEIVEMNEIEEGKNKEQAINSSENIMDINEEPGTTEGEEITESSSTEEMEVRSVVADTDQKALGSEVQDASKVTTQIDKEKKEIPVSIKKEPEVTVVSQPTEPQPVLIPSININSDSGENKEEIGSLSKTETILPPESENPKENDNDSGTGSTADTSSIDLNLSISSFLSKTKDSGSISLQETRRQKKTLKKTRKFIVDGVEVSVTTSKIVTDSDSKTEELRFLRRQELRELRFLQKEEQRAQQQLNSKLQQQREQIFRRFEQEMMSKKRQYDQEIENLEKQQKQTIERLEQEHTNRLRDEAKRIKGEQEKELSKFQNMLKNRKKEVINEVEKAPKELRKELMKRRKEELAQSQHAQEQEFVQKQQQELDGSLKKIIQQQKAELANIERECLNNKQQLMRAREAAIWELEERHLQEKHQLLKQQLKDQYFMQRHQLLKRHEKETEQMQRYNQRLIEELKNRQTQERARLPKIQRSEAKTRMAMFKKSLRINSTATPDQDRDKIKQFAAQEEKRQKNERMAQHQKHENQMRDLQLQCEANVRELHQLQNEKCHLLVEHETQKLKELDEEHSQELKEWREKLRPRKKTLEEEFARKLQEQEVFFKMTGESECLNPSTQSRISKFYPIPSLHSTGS

[34] = target: Serine palmitoyltransferase 1 (Homo sapiens) (UniProt O15269)
[35] = target: Very-long-chain enoyl-CoA reductase (Homo sapiens) (UniProt Q9NZ01)
[36] = target: Transmembrane 9 superfamily member 3 (Homo sapiens) (UniProt Q9HD45)
[37] = target: Non-receptor tyrosine-protein kinase TNK1 (Homo sapiens) (UniProt Q13470)
[38] = target: Activated CDC42 kinase 1 (Homo sapiens) (UniProt Q07912)
[39] = target: Transformer-2 protein homolog beta (Homo sapiens) (UniProt P62995)
[40] = target: Ubiquitin-conjugating enzyme E2 L3 (Homo sapiens) (UniProt P68036)
[41] = target: Serine/threonine-protein kinase ULK3 (Homo sapiens) (UniProt Q6PHR2)
[42] = target: Wee1-like protein kinase (Homo sapiens) (UniProt P30291)
[43] = target: Exportin-5 (Homo sapiens) (UniProt Q9HAV4)
Chain of Exportin-5 (Homo sapiens) (Q9HAV4 whole entry): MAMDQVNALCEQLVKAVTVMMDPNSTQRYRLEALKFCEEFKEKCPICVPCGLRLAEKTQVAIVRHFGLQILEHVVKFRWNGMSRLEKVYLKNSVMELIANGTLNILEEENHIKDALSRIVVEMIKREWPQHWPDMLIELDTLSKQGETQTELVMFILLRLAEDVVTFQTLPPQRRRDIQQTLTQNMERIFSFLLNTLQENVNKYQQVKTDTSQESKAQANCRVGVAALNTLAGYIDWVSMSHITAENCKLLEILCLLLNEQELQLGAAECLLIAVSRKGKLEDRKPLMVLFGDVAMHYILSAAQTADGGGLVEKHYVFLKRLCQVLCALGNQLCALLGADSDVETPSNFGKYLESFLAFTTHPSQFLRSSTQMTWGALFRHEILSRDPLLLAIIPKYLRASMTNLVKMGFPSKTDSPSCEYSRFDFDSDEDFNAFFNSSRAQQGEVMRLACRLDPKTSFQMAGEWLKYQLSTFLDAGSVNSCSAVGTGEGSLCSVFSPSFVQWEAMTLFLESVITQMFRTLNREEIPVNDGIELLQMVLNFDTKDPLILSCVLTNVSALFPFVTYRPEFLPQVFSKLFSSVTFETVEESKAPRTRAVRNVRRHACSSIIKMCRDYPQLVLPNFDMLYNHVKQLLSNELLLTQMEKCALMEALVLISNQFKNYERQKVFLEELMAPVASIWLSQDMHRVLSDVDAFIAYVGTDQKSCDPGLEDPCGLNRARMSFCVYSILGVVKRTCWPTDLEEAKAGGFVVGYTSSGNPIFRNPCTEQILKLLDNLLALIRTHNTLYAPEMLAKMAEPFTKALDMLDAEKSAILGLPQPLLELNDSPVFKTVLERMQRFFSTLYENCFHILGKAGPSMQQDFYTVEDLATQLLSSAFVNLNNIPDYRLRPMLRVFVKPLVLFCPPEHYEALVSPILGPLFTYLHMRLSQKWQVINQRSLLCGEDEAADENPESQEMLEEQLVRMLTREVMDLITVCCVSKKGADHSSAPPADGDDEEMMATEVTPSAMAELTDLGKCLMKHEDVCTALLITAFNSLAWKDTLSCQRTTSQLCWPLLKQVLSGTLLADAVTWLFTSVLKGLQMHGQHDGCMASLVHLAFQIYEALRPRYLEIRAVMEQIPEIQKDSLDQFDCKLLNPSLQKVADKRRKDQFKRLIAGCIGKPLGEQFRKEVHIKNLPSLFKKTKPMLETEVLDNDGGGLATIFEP
Note: assay method not described here.

SMILES: Cc1ccc(C(=O)Nc2cccc(C(F)(F)F)c2)cc1Nc1nc(-c2cccnc2)nc2c1cnn2C
- ED50 (Ephrin type-A receptor 5): 0.0633 µM
- ED50 [1]: 7.09 µM
- ED50 [2]: 5.02 µM
- ED50 [3]: 11.5 µM
- ED50 [4]: 0.0151 µM
- ED50 (Cyclin-A2 (Homo sapiens)): 4.89 µM
- ED50 (Cyclin-H (Homo sapiens)): 0.0553 µM
- ED50 [5]: 17.8 µM
- ED50 [6]: 0.0189 µM
- ED50 (Homo sapiens [7]): 5.49 µM
- ED50 [8]: 0.362 µM
- ED50 [9]: 3.18 µM
- ED50 [10]: 0.173 µM
- ED50 [11]: 0.836 µM
- ED50 [12]: 3.42 µM
- ED50 (Kinectin (Homo sapiens)): 4.85 µM
- ED50 [13]: 4.63 µM
- ED50 [14]: 5.79 µM
- ED50 [15]: 0.0284 µM
- ED50 [16]: 41.5 µM
- ED50 [17]: 5.05 µM
- ED50 [18]: 0.46 µM
- ED50 [19]: 13.9 µM
- ED50 [20]: 7.11 µM
- ED50 [21]: 0.651 µM
- ED50 [22]: 3.25 µM
- ED50 [23]: 6.22 µM
- ED50 (Homo sapiens [24]): 3.57 µM
- ED50 [25]: 23.3 µM
- ED50 [26]: 78.2 µM
- ED50 [27]: 11.7 µM
- ED50 [28]: 5.26 µM
- ED50 [29]: 0.00528 µM
- ED50 [30]: 0.00292 µM
- ED50 [31]: 430 µM
- ED50 [32]: 4.38 µM
- ED50 [33]: 0.0219 µM
- ED50 [34]: 0.613 µM
- ED50 [35]: 3.86 µM
- ED50 [36]: 4.22 µM
- ED50 [37]: 18.8 µM
- ED50 [38]: 2.19 µM
- ED50 [39]: 0.0121 µM
- ED50 [40]: 5.79 µM
- ED50 [41]: 3.54 µM
- ED50 [42]: 0.0311 µM
- ED50 [43]: 0.0475 µM

SMILES: Cc1ccc(C(=O)Nc2cccc(C(F)(F)F)c2)cc1Nc1nc(-c2cccnc2)nc2nn(C)cc12
- ED50 (Ephrin type-A receptor 5): 0.982 µM
- ED50 [1]: 0.0135 µM
- ED50 [2]: 0.0579 µM
- ED50 [3]: 0.0113 µM
- ED50 [4]: 39.4 µM
- ED50 (Cyclin-A2 (Homo sapiens)): 0.586 µM
- ED50 (Cyclin-H (Homo sapiens)): 13.2 µM
- ED50 [5]: 8.22 µM
- ED50 [6]: 0.0214 µM
- ED50 (Homo sapiens [7]): 0.961 µM
- ED50 [8]: 0.016 µM
- ED50 [9]: 8.73 µM
- ED50 [10]: 33.1 µM
- ED50 [11]: 0.0344 µM
- ED50 [12]: 0.229 µM
- ED50 (Kinectin (Homo sapiens)): 0.466 µM
- ED50 [13]: 0.265 µM
- ED50 [14]: 0.0815 µM
- ED50 [15]: 5.57 µM
- ED50 [16]: 1530 µM
- ED50 [17]: 0.253 µM
- ED50 [18]: 0.203 µM
- ED50 [19]: 0.00552 µM
- ED50 [20]: 0.083 µM
- ED50 [21]: 23.2 µM
- ED50 [22]: 5.82 µM
- ED50 [23]: 0.0197 µM
- ED50 (Homo sapiens [24]): 0.061 µM
- ED50 [25]: 3690 µM
- ED50 [26]: 3.97 µM
- ED50 [27]: 7.5 µM
- ED50 [28]: 0.048 µM
- ED50 [29]: 7.92 µM
- ED50 [30]: 1.01 µM
- ED50 [31]: 6.74 µM
- ED50 [32]: 4.79 µM
- ED50 [33]: 0.187 µM
- ED50 [34]: 0.107 µM
- ED50 [35]: 1.31 µM
- ED50 [36]: 0.0218 µM
- ED50 [37]: 0.064 µM
- ED50 [38]: 10.3 µM
- ED50 [39]: 0.537 µM
- ED50 [40]: 0.32 µM
- ED50 [41]: 0.0784 µM
- ED50 [42]: 2.63 µM
- ED50 [43]: 3.69 µM
